Consider eleven molecules from patent publication US11007214B2, “Compositions and methods for treating eye diseases” (CLOUDBREAK THERAPEUTICS LLC, priority 2019, dated 2021).

Read-outs that look alike come from different tables or passages of the source.

The test system of data set [1] is Patients with Primary or Recurrent Pterygium. As for the experimental part:
A Phase 2a Multicenter, Randomized, Vehicle-Controlled, Dose Escalating Study was carried out to evaluate the Safety, Efficacy and Pharmacokinetics of Nintedanib Ophthalmic Solution in Patients with Primary or Recurrent Pterygium. The multicenter, randomized, double-masked, vehicle-controlled, parallel study was conducted with 28 days three times a day (TID) repeat ocular dosing of vehicle and 0.2% nintedanib, followed by 5-month post-dosing observation.
Pterygium patients often have meibomian gland atrophy and clinical signs and symptoms of MGD, including ocular pain, itchy, foreign body sensation, redness, sensitivity to light and […]. In the Phase II clinical trial, pterygia patients were asked 15 questions on ocular symptom, vision-related functioning and quality of life via Pterygium Symptom and Life Quality (PSLQ) questionnaires.
PSLQ analyses were performed for 4 average category scores; Overall, Ocular Symptoms, Vision-Related Functioning, and Quality of Life Impact.

A short description of data set [2]: Screening of CDs and CD derivatives for ability to dissolve cholesterol in water (HPLC). In kind it is physicochemical. As to conditions: for Concentrations of Cholesterol in CDs Solution: 5 days at ambient, ND = not detectable. On the procedure:
Purpose: To determine the level of cholesterol that can be dissolved in water when 10 different CDs and their derivatives were added at three concentrations.
All CD solutions were prepared with starting 20% (w/v) solutions by accurately adding about 800 mg CDs in 4 milliliter water, 1% and 10% were diluted from this 20% solution to 2 mL for each sample preparation experiment.
Cholesterol was added accurately to all CD water solutions at about 40 mg/mL or about 80 mg per 2 mL. This amount of cholesterol was enough to fully saturate the CD solutions with white settlements or floating or both. All samples were conditioned at ambient by shaking using a rotator for 5 days.
After the equilibration with shaking for 5 days at ambient, the clear or semi-clear portion was filtered with 0.2 μm filter. 50 μL of the filtered solution was diluted with 450 μL methanol (10×) for HPLC analysis. NOVAPAK phenyl column (7.6 cm by 3.9 mm I.D.) was used with a mobile phase of acetonitrile: water (70:30) at a flow rate of 0.5 ml/min and detection at UV at 210 nm.

The conditions of data set [3]: cited from earlier work; for Ability to form soluble complex with cholesterol in aqueous solution (in words): 37° C., CDs 1.0 × 10^−2 M; for Absorbance (600 nm), increase due to cholesterol dissolved by CDs: aqueous solution at 37° C., concentration of CDs 1.0 × 10^−2 M.
The subject of data set [4] is pterygium patients with dry eye or with no dry eye. The experiment in a line: PSLQ ocular symptom score, further analysis by dry eye condition. It counts as in vivo, human. As to conditions: any timepoint. The text has this: These ocular symptoms are often observed in MGD patients. Scores of these symptoms were graded by patients as part of PSLQ questionnaires. (1) Dry eye patients vs. Non-dry eye patients (based upon patients' medical history) with the combined nintedanib-treated and vehicle-treated groups. […] The pterygium patients with dry eye condition was compared with pterygium patients with no dry eye condition. In this comparison, all pterygium patients with dry eye condition in the drug and vehicle treated group was combined and the same was done for pterygium patients with no dry eye condition. Number of data points for each group were N=17 for dry eye and N=18 for no dry eye. […] Pterygium patients with dry eye condition had higher baseline score and had bigger reduction from baseline of ocular symptom score during treatment period when compared to pterygium patients with no dry eye condition. (2) Nintedanib vs. Vehicle for dry eye patients (based upon patients' medical history).

Turning to “2-Hydroxypropyl-beta-cyclodextrin [2-HP-β-CD]”, the “PSLQ scores compared to the baseline (in words)” value in data set [1] (2-HP-β-CD-treated group) is given as “significant improvements”. In data set [1] (Baseline, N = 23, SD 0.80, Modified Intent-to-Treat Population), the “PSLQ Average Vision-Related Functioning Score, Mean” value is 0.57. Moreover, the “PSLQ Average Vision-Related Functioning Score, Change from Baseline, Mean” value is on record as −0.27 in data set [1] (Week 2, N = 23, SD 0.65, p-value 0.067 (one sample t-test)); −0.48 in data set [1] (Week 4, N = 23, SD 0.65, p-value 0.003); −0.43 in data set [1] (Week 8, N = 23, SD 0.62, p-value 0.004); −0.23 in data set [1] (Week 16, N = 23, SD 0.56, p-value 0.08); −0.11 in data set [1] (Week 24, N = 23, SD 1.1, p-value 0.617). In addition, the “Ability to dissolve cholesterol in water (in words)” value (shortened to “Ability to dissolve cholesterol”) in data set [2] is recorded as “substantial ability to dissolve cholesterol”. The entries for the “Concentrations of Cholesterol in CDs Solution” value (from here on “Concentrations of Cholesterol”) in data set [2] (CD 1% (w/v) in water) and in data set [2] (CD 10% (w/v) in water) were 0.01 mg/mL and 0.82 mg/mL, respectively. Further, the “Ability to form soluble complex with cholesterol in aqueous solution (in words)” value (“Ability to form soluble complex” below) in data set [3] was “weak ability”. Moreover, the “Absorbance (600 nm), increase due to cholesterol dissolved by CDs” value (from here on “Absorbance (600 nm), increase due”) in data set [3] is reported as 0.01.
“2-hydroxypropyl-alpha-cyclodextrin [HP-ACD, reference compound]”: the “Ability to dissolve cholesterol” value in data set [2] was “no detectable cholesterol dissolving activity”.
For the molecule “2-hydroxypropyl-gamma-cyclodextrin [HP-GCD, reference compound]”, the “Ability to dissolve cholesterol” value in data set [2] was “extremely low levels”. Also, the “Concentrations of Cholesterol” value in data set [2] (CD 10% (w/v) in water) turned out to be 0.003 mg/mL; in data set [2] (CD 20% (w/v) in water) it was 0.011 mg/mL.
For `OC[C@H]1O[C@H](O[C@H]2[C@H](O)[C@@H](O)[C@@H](OC[C@H]3O[C@@H]4O[C@H]5[C@H](O)[C@@H](O)[C@@H](O[C@H]6[C@H](O)[C@@H](O)[C@@H](O[C@H]7[C@H](O)[C@@H](O)[C@@H](O[C@H]8[C@H](O)[C@@H](O)[C@@H](O[C@H]9[C@H](O)[C@@H](O)[C@@H](O[C@H]%10[C@H](O)[C@@H](O)[C@@H](O[C@H]3[C@H](O)[C@H]4O)O[C@@H]%10CO)O[C@@H]9CO)O[C@@H]8CO)O[C@@H]7CO)O[C@@H]6CO)O[C@@H]5CO)O[C@@H]2CO)[C@H](O)[C@@H](O)[C@@H]1O` [6-AM-BCD, 6-O-alpha-maltosyl-beta-cyclodextrin], the “Ability to dissolve cholesterol” value in data set [2] is given as “about half lower”. The “Concentrations of Cholesterol” value in data set [2] (CD 1% (w/v) in water) turned out to be 0.03 mg/mL.
As for `OC[C@H]1O[C@@H]2O[C@H]3[C@H](O)[C@@H](O)[C@@H](O[C@H]4[C@H](O)[C@@H](O)[C@@H](O[C@H]5[C@H](O)[C@@H](O)[C@@H](O[C@H]6[C@H](O)[C@@H](O)[C@@H](O[C@H]7[C@H](O)[C@@H](O)[C@@H](O[C@H]1[C@H](O)[C@H]2O)O[C@@H]7CO)O[C@@H]6CO)O[C@@H]5CO)O[C@@H]4CO)O[C@@H]3CO` [ACD, alpha-cyclodextrin], in data set [3], the “Ability to form soluble complex” value was “do not form soluble complexes with cholesterol” and the “Absorbance (600 nm), increase due” value is listed as 0.
On to `OC[C@H]1O[C@@H]2O[C@H]3[C@H](O)[C@@H](O)[C@@H](O[C@H]4[C@H](O)[C@@H](O)[C@@H](O[C@H]5[C@H](O)[C@@H](O)[C@@H](O[C@H]6[C@H](O)[C@@H](O)[C@@H](O[C@H]7[C@H](O)[C@@H](O)[C@@H](O[C@H]8[C@H](O)[C@@H](O)[C@@H](O[C@H]1[C@H](O)[C@H]2O)O[C@@H]8CO)O[C@@H]7CO)O[C@@H]6CO)O[C@@H]5CO)O[C@@H]4CO)O[C@@H]3CO` [BCD, beta-cyclodextrin], for which the “Ability to form soluble complex” value in data set [3] is reported as “do not form soluble complexes with cholesterol”.
In the case of `COC[C@H]1O[C@@H]2O[C@H]3[C@H](O)[C@@H](OC)[C@@H](O[C@H]4[C@H](O)[C@@H](OC)[C@@H](O[C@H]5[C@H](O)[C@@H](OC)[C@@H](O[C@H]6[C@H](O)[C@@H](OC)[C@@H](O[C@H]7[C@H](O)[C@@H](OC)[C@@H](O[C@H]8[C@H](O)[C@@H](OC)[C@@H](O[C@H]1[C@H](O)[C@H]2OC)O[C@@H]8COC)O[C@@H]7COC)O[C@@H]6COC)O[C@@H]5COC)O[C@@H]4COC)O[C@@H]3COC` [DM-BCD, heptakis (2,6-di-O-methyl)-beta-cyclodextrin], the “Ability to dissolve cholesterol” value in data set [2] is listed as “the best”. Besides, the “Absorbance (600 nm), increase due” value in data set [3] is 0.336.
Take `OC[C@H]1O[C@@H]2O[C@H]3[C@H](O)[C@@H](O)[C@@H](O[C@H]4[C@H](O)[C@@H](O)[C@@H](O[C@H]5[C@H](O)[C@@H](O)[C@@H](O[C@H]6[C@H](O)[C@@H](O)[C@@H](O[C@H]7[C@H](O)[C@@H](O)[C@@H](O[C@H]8[C@H](O)[C@@H](O)[C@@H](O[C@H]9[C@H](O)[C@@H](O)[C@@H](O[C@H]1[C@H](O)[C@H]2O)O[C@@H]9CO)O[C@@H]8CO)O[C@@H]7CO)O[C@@H]6CO)O[C@@H]5CO)O[C@@H]4CO)O[C@@H]3CO` [GCD, gamma-cyclodextrin]: in data set [3], the “Ability to form soluble complex” value was “do not form soluble complexes with cholesterol” and the “Absorbance (600 nm), increase due” value is on record as 0.
In the case of `COC(=O)c1ccc2c(c1)NC(=O)/C2=C(\Nc1ccc(N(C)C(=O)CN2CCN(C)CC2)cc1)c1ccccc1` [Nintedanib 0.2%, nintedanib], in data set [4], the “PSLQ ocular symptom score, Nintedanib 0.2% vs Vehicle (in words)” value is “no statistically significant differences”.
On to random methyl-beta-cyclodextrin [M-BCD], for which the “Ability to dissolve cholesterol” value in data set [2] is “the best”. In addition, the “Concentrations of Cholesterol” value in data set [2] (CD 1% (w/v) in water) was 0.15 mg/mL.
With “sulfobutylated beta-cyclodextrin [SBE-BCD]”, the figures for the “Concentrations of Cholesterol” value in data set [2] (CD 1% (w/v) in water), in data set [2] (CD 10% (w/v) in water) and in data set [2] (CD 20% (w/v) in water) were 0.002 mg/mL, 0.03 mg/mL and 0.15 mg/mL, respectively.
